Experiment [1] relates to Erysiphe graminis f. sp. tritici. Nature of the experiment: Example D wheat powdery mildew. The experiment is classed as in vivo. The following applies: Blumeria graminis, 144 h, read-out: disease control rating, Ex. D. As for the experimental part:
The test compounds were dissolved in acetone in an amount equal to 6% of the final volume and then suspended at a concentration of 100 or 20 ppm in purified water containing 250 ppm of the surfactant TREM 014 (polyhydric alcohol esters). This suspension was sprayed to the point of run-off on wheat seedlings.

Another experiment relates to Pyricularia oryzae. The experiment in a line: whole plant or invertebrate. Conditions: Pyricularia oryzae, 120 h; for pest or weed control at 100 ppm: read-out: disease control rating, Ex. E, 100 PPM; for pest or weed control at 20 ppm: read-out: disease control rating, Ex. E, 20 PPM. The class given is in vivo.
Experiment [2] has as its system Aspergillus fumigatus ATCC 28214. Nature of the experiment: In vitro antifungal MIC, microtiter broth dilution. The following applies: Aspergillus fumigatus, ATCC28214, 24 h, read-out: MIC values, A. fumigatus, 30°, 24 hours. In general terms: In broth dilution the organism is exposed to a series of concentrations in liquid medium.
In a further experiment the test system is Venturia inaequalis. Nature of the experiment: Example A apple scab. The experiment is classed as in vivo. The following applies: read-out: disease control rating, Ex. A. The protocol: The test compounds were dissolved in acetone in an amount equal to 6% of the final volume and then suspended at a concentration of 100 or 20 ppm in purified water containing 250 ppm of the surfactant TREM 014 (polyhydric alcohol esters). This suspension was sprayed to the point of run-off on apple seedings.

A further experiment relates to Botrytis cinerea. The experiment in a line: Example C bean grey mold. Conditions: Botrytis cinerea, 24 h, read-out: disease control rating, Ex. C. The class given is in vivo. The protocol: The test compounds were dissolved in acetone in an amount equal to 6% of the final volume and then suspended at a concentration of 100 or 20 ppm in purified water containing 250 ppm of the surfactant TREM 014 (polyhydric alcohol esters). This suspension was sprayed to the point of run-off on broad bean seedlings.

Experiment [3] concerns Candida albicans ATCC 11651. Nature of the experiment: In vivo systemic Candida infection in mice, primary assay. Further details: species or system Candida albicans; CF-1 female mice. Conditions: Candida albicans, 150 mg/kg per day, read-out: % Survival. The source says: The […] activity of test compounds is based on the percent (%) survival of infected animals receiving test or standard agent compared to that in an infected untreated group (Table 6). The in vivo assays are chronic systemic infections lethal to mice within 7 days post infection, [J. Barnes, et al. Lab Investigation, 49 460-467 (1963), and T. Rogers and E. Balish, Infection and Immunity, 14 33-38 (1976)].
Candida albicans ATCC 11651, from a frozen stock culture (10^9 organisms/ml) maintained at -70°, is diluted in saline to 1×10^7 organisms/ml and 0.2 ml inoculated intravenously (caudal vein) into 20.0 gm CF-1 female mice (Charles River).
Test compounds are routinely solubilized in 0.25% (w/v) methylcellulose (Methocel®) but for those compounds difficult to solubilize 10% (w/v) Emulophor® (EL620 GAF Corp.) is used. The standard antifungal agents, amphotericin B (Fungizone®) in water and ketoconazole (Nizoral®) in Methocel®, are administered at 1.0 mg/kg/day and 150 mg/kg/day, respectively.
In a primary assay, mice (10 per group) are infected with C. albicans, and receive test compounds at 50 or 150 mg/kg/day via the subcutaneous route. Animals are dosed with the test compound at 1 and 6 hour post-infection and then once daily for the next three days. Survival of mice in each group is recorded for 21 days.
Compounds which protect ≥70% of the infected animals for 14 days at a dose 150 mg/kg/day or less are viewed as active.

The subject of the next experiment is Puccinia recondita. The experiment in a line: Example G wheat leaf rust. The following applies: read-out: disease control rating, Ex. G. The experiment is classed as in vivo.
The subject of experiment [4] is Cercosporidium personatum. The experiment in a line: Example B Peanut Late Leafspot. The experiment is classed as in vivo. The following applies: Nothopassalora personata, read-out: disease control rating, Ex. B. As for the experimental part:
The test compounds were dissolved in acetone in an amount equal to 6% of the final volume and then suspended at a concentration of 100 or 20 ppm in purified water containing 250 ppm of the surfactant TREM 014 (polyhydric alcohol esters). This suspension was sprayed to the point of run-off on peanut seedlings.

The test system of the next experiment is Rhizoctonia solani. Nature of the experiment: Example F rice sheath blight. The experiment is classed as in vivo. The following applies: Rhizoctonia solani, 144 h, read-out: disease control rating, Ex. F. As for the experimental part:
The test compounds were dissolved in acetone in an amount equal to 6% of the final volume and then suspended at a concentration of 100 or 20 ppm in purified water containing 250 ppm of the surfactant TREM 014 (polyhydric alcohol esters). This suspension was sprayed to the point of run-off on rice seedlings.

Experiment [5] concerns Candida albicans ATCC 11651. The experiment in a line: In vitro antifungal MIC, microtiter broth dilution. The following applies: Candida albicans, ATCC11651, 24 h, read-out: MIC values, C. albicans, 30°, 24 hours.
Another experiment deals with Phytophthora infestans. The experiment in a line: whole plant or invertebrate. Conditions: Phytophthora infestans, in Solanum lycopersicum, read-out: disease control rating, Ex. H, 100 PPM. The experiment is classed as in vivo.
A further experiment deals with Plasmorpara viticola. Nature of the experiment: Example I grape downy mildew. Conditions: read-out: disease control rating, Ex. I. The experiment is classed as in vivo. As for the experimental part:
The test compounds were dissolved in acetone in an amount equal to 6% of the final volume and then suspended at a concentration of 100 or 20 ppm in purified water containing 250 ppm of the surfactant TREM 014 (polyhydric alcohol esters). This suspension was sprayed to the point of run-off on grape seedlings.

The term MIC denotes the lowest concentration that inhibits growth of the organism.

Values after ≈ are worked out from the molar mass of the structure shown. Read-outs that look alike come from different tables or passages of the source. A value given as a limit tells only on which side of the number the result lay.

For the molecule `C=C(c1ccc(Cl)cc1)C(O)(Cn1cncn1)c1cccc(C(F)(F)F)c1` (centres unmarked) [Example 685], the pest or weed control at 20 ppm in [1] was determined as 67%; in the experiment with Venturia inaequalis, 57%; in the experiment with Botrytis cinerea, 28%; in the experiment on Puccinia recondita, 100%; in experiment [4], 66%; in the experiment with Rhizoctonia solani it was 15%. Also, the pest or weed control at 100 ppm stood at 0% with Pyricularia oryzae, 0% in the experiment with Botrytis cinerea and 29% with Rhizoctonia solani. The MIC in [2] worked out at 100 µg/mL (≈ 254 µM); in experiment [5], 0.8 µg/mL (≈ 2.03 µM). Also, the responders at 150 mg/kg in experiment [3] (ATCC11651, 168 h, day 7) was found to be 30%; in [3] (ATCC11651, 336 h, day 14), 10%; in experiment [3] (ATCC11651, 504 h, day 21), 0%.
As to `C=C(c1ccc(F)cc1)C(O)(Cn1cncn1)c1cccc(C(F)(F)F)c1` (centres unmarked) [Example 661], the pest or weed control at 20 ppm in [1] is 62%; in the experiment with Pyricularia oryzae, 0%; in the experiment with Venturia inaequalis, 81%; in the experiment on Botrytis cinerea, 61%; in the experiment on Puccinia recondita, 100%; in experiment [4] it was 79%. Moreover, in the experiment with Rhizoctonia solani, the pest or weed control at 20 ppm came to 10%. For the same molecule, the pest or weed control at 100 ppm in the experiment with Pyricularia oryzae came out at 0%; with Botrytis cinerea, 56%; in the experiment with Phytophthora infestans it was 5%; in the experiment on Plasmorpara viticola, 85%; with Rhizoctonia solani it was 70%. Further, the figures for the MIC in experiment [2] and in [5] were 100 µg/mL (≈ 265 µM) and 1.6 µg/mL (≈ 4.24 µM), respectively. For the same molecule, the responders at 150 mg/kg in experiment [3] (ATCC11651, 168 h, day 7) is 50%; in experiment [3] (ATCC11651, 336 h, day 14) it was 20%; in experiment [3] (ATCC11651, 504 h, day 21), 0%.
Regarding `C=C(c1ccc(F)cc1)C(O)(Cn1cncn1)c1ccc(OC)cc1` (centres unmarked) [Example 663], the pest or weed control at 100 ppm in [1] was 99%; in the experiment with Pyricularia oryzae it was 57%; with Venturia inaequalis, 42%; with Botrytis cinerea it was 95%; in the experiment with Puccinia recondita it was 100%; with Phytophthora infestans it was 0%. The pest or weed control at 100 ppm in [4] was found to be 100%; in the experiment on Plasmorpara viticola, 39%; with Rhizoctonia solani, 36%.
Take `C=C(c1ccc(Cl)cc1)C(O)(Cn1cncn1)c1ccc(Cl)c(Cl)c1` (centres unmarked) [Example 675]: the pest or weed control at 20 ppm in experiment [1] worked out at 44%; in the experiment on Pyricularia oryzae, 0%; with Venturia inaequalis, 40%; in the experiment with Botrytis cinerea, 42%; in the experiment on Puccinia recondita, 16%; in [4], 0%. Further, in the experiment on Rhizoctonia solani, the pest or weed control at 20 ppm turned out to be 0%. Besides, the pest or weed control at 100 ppm in the experiment on Pyricularia oryzae amounted to 0%; with Botrytis cinerea, 30%; in the experiment with Phytophthora infestans it was 0%; with Plasmorpara viticola it was 69%; with Rhizoctonia solani, 62%. Also, the minimum inhibitory concentration (MIC) in experiment [2] was 25 µg/mL (≈ 63.3 µM); in [5], 0.1 µg/mL (≈ 0.253 µM). Further, the responders at 150 mg/kg was determined as 100% in [3] (ATCC11651, 168 h, day 7); 60% in [3] (ATCC11651, 336 h, day 14); 0% in experiment [3] (ATCC11651, 504 h, day 21).
In the case of `OC(Cn1cncn1)(C(=Cc1ccccc1)c1ccccc1)c1ccc(F)cc1` (centres unmarked) [Example 291], the pest or weed control at 20 ppm in [1] worked out at 83%; with Pyricularia oryzae, 1%; in the experiment on Venturia inaequalis, 32%; with Botrytis cinerea, 6%; with Puccinia recondita, 73%; in experiment [4], 26%. For the same molecule, in the experiment on Rhizoctonia solani, the pest or weed control at 20 ppm was 0%. Moreover, the pest or weed control at 100 ppm in the experiment on Pyricularia oryzae was found to be 1%; in the experiment on Botrytis cinerea, 81%; in the experiment on Phytophthora infestans, 24%; with Plasmorpara viticola, 78%; in the experiment with Rhizoctonia solani, 0%. Besides, the values for the MIC in experiment [2] and in experiment [5] were 100 µg/mL (≈ 259 µM) and 0.2 µg/mL (≈ 0.519 µM), respectively.
For the molecule `C=C(c1ccc(S(C)(=O)=O)cc1)C(O)(Cn1cncn1)c1ccc(F)cc1` (centres unmarked) [Example 177], the pest or weed control at 20 ppm came out at 46% in experiment [1]; 0% with Pyricularia oryzae; 82% in the experiment with Venturia inaequalis; 50% in the experiment on Botrytis cinerea; 100% in the experiment on Puccinia recondita; 26% in experiment [4]. For the same molecule, the pest or weed control at 20 ppm in the experiment on Rhizoctonia solani stood at 0%. For the same molecule, the pest or weed control at 100 ppm is 10% in the experiment with Pyricularia oryzae; 26% with Botrytis cinerea; 0% in the experiment on Phytophthora infestans; 0% with Plasmorpara viticola; 0% in the experiment with Rhizoctonia solani. Further, the figures for the MIC in [2] and in [5] were greater than 100 µg/mL and 3.2 µg/mL (≈ 8.26 µM), respectively.
As for `C=C(CN(C)C)C(O)(Cn1cncn1)c1ccc(F)cc1` (centres unmarked) [Example 454], the pest or weed control at 100 ppm was found to be 22% in [1]; 0% in the experiment with Pyricularia oryzae; 0% with Venturia inaequalis; 0% with Botrytis cinerea; 0% with Puccinia recondita; 0% with Phytophthora infestans. The pest or weed control at 100 ppm (in experiment [4]; in the experiment on Plasmorpara viticola; in the experiment with Rhizoctonia solani) was 0% in each case. For the same molecule, the MIC was greater than 100 µg/mL in experiment [2] and 100 µg/mL (≈ 344 µM) in experiment [5].
Take `C=C(c1ccc([S+](C)[O-])cc1)C(O)(Cn1cncn1)c1ccc(F)cc1` (centres unmarked) [Example 170]: the pest or weed control at 20 ppm in experiment [1] was 95%; in the experiment on Pyricularia oryzae, 0%; in the experiment with Venturia inaequalis, 19%; in the experiment with Botrytis cinerea it was 32%; in the experiment with Puccinia recondita, 100%; in experiment [4] it was 69%. Also, the pest or weed control at 20 ppm in the experiment with Rhizoctonia solani is 0%. The pest or weed control at 100 ppm in the experiment with Pyricularia oryzae is 10%; with Botrytis cinerea, 20%; in the experiment with Phytophthora infestans it was 0%; in the experiment with Plasmorpara viticola, 0%; in the experiment with Rhizoctonia solani, 0%. Moreover, the minimum inhibitory concentration (MIC) stood at 100 µg/mL (≈ 269 µM) in [2] and 1.6 µg/mL (≈ 4.31 µM) in [5].

These data come from patent publication US4965280A, “Antifungal carbinols” (E. I. Du Pont de Nemours and Company, priority 1989, dated 1990).
